Test system: NCI-H522
Test: Growth inhibition of human NCI-H522 cells assessed as cell growth at 10 uM incubated for 48 hrs by sulforhodamine B assay relative to control
Assay type: functional
Conditions: NCI-H522, 48 h, read-out: Activity

| SMILES | growth at 10 µM |
| --- | --- |
| CCOC(=O)c1c(C)oc2ncnc(Nc3cccc(F)c3)c12 | 94.3% |

Test system: 786-0
Test: Growth inhibition of human 786-0 cells assessed as cell growth at 10 uM incubated for 48 hrs by sulforhodamine B assay relative to control
Assay type: functional
Conditions: 786-0, 48 h, read-out: Activity

| SMILES | growth at 10 µM |
| --- | --- |
| CCOC(=O)c1c(C)oc2ncnc(Nc3cccc(F)c3)c12 | 95.7% |

Test system: HT-29
Test: Growth inhibition of human HT-29 cells assessed as cell growth at 10 uM incubated for 48 hrs by sulforhodamine B assay relative to control
Assay type: functional
Conditions: HT-29, 48 h, read-out: Activity

| SMILES | growth at 10 µM |
| --- | --- |
| CCOC(=O)c1c(C)oc2ncnc(Nc3cccc(F)c3)c12 | 89.8% |

Test system: BT-549
Test: Growth inhibition of human BT549 cells assessed as cell growth at 10 uM incubated for 48 hrs by sulforhodamine B assay relative to control
Assay type: functional
Conditions: BT-549, 48 h, read-out: Activity

| SMILES | growth at 10 µM |
| --- | --- |
| CCOC(=O)c1c(C)oc2ncnc(Nc3cccc(F)c3)c12 | 94.2% |

Test system: OVCAR-4
Test: Growth inhibition of human OVCAR4 cells assessed as cell growth at 10 uM incubated for 48 hrs by sulforhodamine B assay relative to control
Assay type: functional
Conditions: OVCAR-4, 48 h, read-out: Activity

| SMILES | growth at 10 µM |
| --- | --- |
| CCOC(=O)c1c(C)oc2ncnc(Nc3cccc(F)c3)c12 | 108% |

Test system: SK-MEL-2
Test: Growth inhibition of human SK-MEL-2 cells assessed as cell growth at 10 uM incubated for 48 hrs by sulforhodamine B assay relative to control
Assay type: functional
Conditions: SK-MEL-2, 48 h, read-out: Activity

| SMILES | growth at 10 µM |
| --- | --- |
| CCOC(=O)c1c(C)oc2ncnc(Nc3cccc(F)c3)c12 | 92.9% |

Test system: TK-10
Test: Growth inhibition of human TK10 cells assessed as cell growth at 10 uM incubated for 48 hrs by sulforhodamine B assay relative to control
Assay type: functional
Conditions: TK-10, 48 h, read-out: Activity

| SMILES | growth at 10 µM |
| --- | --- |
| CCOC(=O)c1c(C)oc2ncnc(Nc3cccc(F)c3)c12 | 95.9% |

Test system: SF-268
Test: Growth inhibition of human SF268 cells assessed as cell growth at 10 uM incubated for 48 hrs by sulforhodamine B assay relative to control
Assay type: functional
Conditions: SF-268, 48 h, read-out: Activity

| SMILES | growth at 10 µM |
| --- | --- |
| CCOC(=O)c1c(C)oc2ncnc(Nc3cccc(F)c3)c12 | 102% |

Test system: A549
Test: Growth inhibition of human A549/ATCC cells assessed as cell growth at 10 uM incubated for 48 hrs by sulforhodamine B assay relative to control
Assay type: functional
Conditions: A549, 48 h, read-out: Activity

| SMILES | growth at 10 µM |
| --- | --- |
| CCOC(=O)c1c(C)oc2ncnc(Nc3cccc(F)c3)c12 | 93% |

Test system: NCI-H23
Test: Growth inhibition of human NCI-H23 cells assessed as cell growth at 10 uM incubated for 48 hrs by sulforhodamine B assay relative to control
Assay type: functional
Conditions: NCI-H23, 48 h, read-out: Activity

| SMILES | growth at 10 µM |
| --- | --- |
| CCOC(=O)c1c(C)oc2ncnc(Nc3cccc(F)c3)c12 | 97.8% |

Test system: MDA-MB-468
Test: Growth inhibition of human MDA-MB-468 cells assessed as cell growth at 10 uM incubated for 48 hrs by sulforhodamine B assay relative to control
Assay type: functional
Conditions: MDA-MB-468, 48 h, read-out: Activity

| SMILES | growth at 10 µM |
| --- | --- |
| CCOC(=O)c1c(C)oc2ncnc(Nc3cccc(F)c3)c12 | 96.5% |

Test system: MDA-MB-435
Test: Growth inhibition of human MDA-MB-435 cells assessed as cell growth at 10 uM incubated for 48 hrs by sulforhodamine B assay relative to control
Assay type: functional
Conditions: MDA-MB-435, 48 h, read-out: Activity

| SMILES | growth at 10 µM |
| --- | --- |
| CCOC(=O)c1c(C)oc2ncnc(Nc3cccc(F)c3)c12 | 101% |

Test system: OVCAR-3
Test: Growth inhibition of human OVCAR3 cells assessed as cell growth at 10 uM incubated for 48 hrs by sulforhodamine B assay relative to control
Assay type: functional
Conditions: OVCAR-3, 48 h, read-out: Activity

| SMILES | growth at 10 µM |
| --- | --- |
| CCOC(=O)c1c(C)oc2ncnc(Nc3cccc(F)c3)c12 | 108% |

Test system: RXF 393
Test: Growth inhibition of human RXF393 cells assessed as cell growth at 10 uM incubated for 48 hrs by sulforhodamine B assay relative to control
Assay type: functional
Conditions: RXF 393, 48 h, read-out: Activity

| SMILES | growth at 10 µM |
| --- | --- |
| CCOC(=O)c1c(C)oc2ncnc(Nc3cccc(F)c3)c12 | 97.6% |

Test system: SW-620
Test: Growth inhibition of human SW620 cells assessed as cell growth at 10 uM incubated for 48 hrs by sulforhodamine B assay relative to control
Assay type: functional
Conditions: SW-620, 48 h, read-out: Activity

| SMILES | growth at 10 µM |
| --- | --- |
| CCOC(=O)c1c(C)oc2ncnc(Nc3cccc(F)c3)c12 | 94.2% |

Test system: Hs-578T
Test: Growth inhibition of human Hs 578T cells assessed as cell growth at 10 uM incubated for 48 hrs by sulforhodamine B assay relative to control
Assay type: functional
Conditions: read-out: Activity

| SMILES | growth at 10 µM |
| --- | --- |
| CCOC(=O)c1c(C)oc2ncnc(Nc3cccc(F)c3)c12 | 99% |

Test system: HOP-92
Test: Growth inhibition of human HOP92 cells assessed as cell growth at 10 uM incubated for 48 hrs by sulforhodamine B assay relative to control
Assay type: functional
Conditions: HOP-92, 48 h, read-out: Activity

| SMILES | growth at 10 µM |
| --- | --- |
| CCOC(=O)c1c(C)oc2ncnc(Nc3cccc(F)c3)c12 | 88.3% |

Test system: ACHN
Test: Growth inhibition of human ACHN cells assessed as cell growth at 10 uM incubated for 48 hrs by sulforhodamine B assay relative to control
Assay type: functional
Conditions: read-out: Activity

| SMILES | growth at 10 µM |
| --- | --- |
| CCOC(=O)c1c(C)oc2ncnc(Nc3cccc(F)c3)c12 | 109% |

Test system: EKVX
Test: Growth inhibition of human EKVX cells assessed as cell growth at 10 uM incubated for 48 hrs by sulforhodamine B assay relative to control
Assay type: functional
Conditions: read-out: Activity

| SMILES | growth at 10 µM |
| --- | --- |
| CCOC(=O)c1c(C)oc2ncnc(Nc3cccc(F)c3)c12 | 101% |

Test system: Malme-3M
Test: Growth inhibition of human MALME-3M cells assessed as cell growth at 10 uM incubated for 48 hrs by sulforhodamine B assay relative to control
Assay type: functional
Conditions: read-out: Activity

| SMILES | growth at 10 µM |
| --- | --- |
| CCOC(=O)c1c(C)oc2ncnc(Nc3cccc(F)c3)c12 | 131% |

Test system: NCI-H322M
Test: Growth inhibition of human NCI-H322M cells assessed as cell growth at 10 uM incubated for 48 hrs by sulforhodamine B assay relative to control
Assay type: functional
Conditions: read-out: Activity

| SMILES | growth at 10 µM |
| --- | --- |
| CCOC(=O)c1c(C)oc2ncnc(Nc3cccc(F)c3)c12 | 106% |

Test system: SNB-19
Test: Growth inhibition of human SNB19 cells assessed as cell growth at 10 uM incubated for 48 hrs by sulforhodamine B assay relative to control
Assay type: functional
Conditions: SNB-19, 48 h, read-out: Activity

| SMILES | growth at 10 µM |
| --- | --- |
| CCOC(=O)c1c(C)oc2ncnc(Nc3cccc(F)c3)c12 | 93.7% |

Test system: U-251
Test: Growth inhibition of human U251 cells assessed as cell growth at 10 uM incubated for 48 hrs by sulforhodamine B assay relative to control
Assay type: functional
Conditions: U-251, 48 h, read-out: Activity

| SMILES | growth at 10 µM |
| --- | --- |
| CCOC(=O)c1c(C)oc2ncnc(Nc3cccc(F)c3)c12 | 106% |

Test system: SF-295
Test: Growth inhibition of human SF295 cells assessed as cell growth at 10 uM incubated for 48 hrs by sulforhodamine B assay relative to control
Assay type: functional
Conditions: SF-295, 48 h, read-out: Activity

| SMILES | growth at 10 µM |
| --- | --- |
| CCOC(=O)c1c(C)oc2ncnc(Nc3cccc(F)c3)c12 | 94.8% |

Test system: PC-3
Test: Growth inhibition of human PC3 cells assessed as cell growth at 10 uM incubated for 48 hrs by sulforhodamine B assay relative to control
Assay type: functional
Conditions: PC-3, 48 h, read-out: Activity

| SMILES | growth at 10 µM |
| --- | --- |
| CCOC(=O)c1c(C)oc2ncnc(Nc3cccc(F)c3)c12 | 94.7% |

Test system: HCC 2998
Test: Growth inhibition of human HCC2998 cells assessed as cell growth at 10 uM incubated for 48 hrs by sulforhodamine B assay relative to control
Assay type: functional
Conditions: HCC 2998, 48 h, read-out: Activity

| SMILES | growth at 10 µM |
| --- | --- |
| CCOC(=O)c1c(C)oc2ncnc(Nc3cccc(F)c3)c12 | 103% |

Test system: HCT-116
Test: Growth inhibition of human HCT116 cells assessed as cell growth at 10 uM incubated for 48 hrs by sulforhodamine B assay relative to control
Assay type: functional
Conditions: HCT-116, 48 h, read-out: Activity

| SMILES | growth at 10 µM |
| --- | --- |
| CCOC(=O)c1c(C)oc2ncnc(Nc3cccc(F)c3)c12 | 88.1% |

Test system: RPMI-8226
Test: Growth inhibition of human RPMI8226 cells assessed as cell growth at 10 uM incubated for 48 hrs by sulforhodamine B assay relative to control
Assay type: functional
Conditions: RPMI-8226, 48 h, read-out: Activity

| SMILES | growth at 10 µM |
| --- | --- |
| CCOC(=O)c1c(C)oc2ncnc(Nc3cccc(F)c3)c12 | 107% |

Test system: MCF7
Test: Growth inhibition of human MCF7 cells assessed as cell growth at 10 uM incubated for 48 hrs by sulforhodamine B assay relative to control
Assay type: functional
Conditions: MCF7, 48 h, read-out: Activity

| SMILES | growth at 10 µM |
| --- | --- |
| CCOC(=O)c1c(C)oc2ncnc(Nc3cccc(F)c3)c12 | 95.4% |

Test system: MDA-MB-231
Test: Growth inhibition of human MDA-MB-231 cells assessed as cell growth at 10 uM incubated for 48 hrs by sulforhodamine B assay relative to control
Assay type: functional
Conditions: MDA-MB-231, 48 h, read-out: Activity

| SMILES | growth at 10 µM |
| --- | --- |
| CCOC(=O)c1c(C)oc2ncnc(Nc3cccc(F)c3)c12 | 91.7% |

Test system: HL-60(TB)
Test: Growth inhibition of human HL-60(TB) cells assessed as cell growth at 10 uM incubated for 48 hrs by sulforhodamine B assay relative to control
Assay type: functional
Conditions: HL-60, 48 h, read-out: Activity

| SMILES | growth at 10 µM |
| --- | --- |
| CCOC(=O)c1c(C)oc2ncnc(Nc3cccc(F)c3)c12 | 76.4% |

Test system: SN12C
Test: Growth inhibition of human SN12C cells assessed as cell growth at 10 uM incubated for 48 hrs by sulforhodamine B assay relative to control
Assay type: functional
Conditions: read-out: Activity

| SMILES | growth at 10 µM |
| --- | --- |
| CCOC(=O)c1c(C)oc2ncnc(Nc3cccc(F)c3)c12 | 89.1% |

Test system: MOLT-4
Test: Growth inhibition of human MOLT4 cells assessed as cell growth at 10 uM incubated for 48 hrs by sulforhodamine B assay relative to control
Assay type: functional
Conditions: MOLT-4, 48 h, read-out: Activity

| SMILES | growth at 10 µM |
| --- | --- |
| CCOC(=O)c1c(C)oc2ncnc(Nc3cccc(F)c3)c12 | 62.5% |

— ChEMBL document CHEMBL4251615, “Discovery of anilino-furo[2,3-d]pyrimidine derivatives as dual inhibitors of EGFR/HER2 tyrosine kinase and their anticancer activity” (Eur J Med Chem, 2018)
